Measurements reported in ChEMBL document CHEMBL4715861, “Design, synthesis and biological evaluation of new bivalent quinazoline analogues as IAP antagonists” (Bioorg Med Chem Lett, 2021).
Activity calls are given as the source filed them. The rule behind the calls is not given here.

Experiments:
MDA-MB-231 [1] = test: Cytotoxicity against human MDA-MB-231 cells; format: functional, cell-based
Cytochrome P450 3A4 = Cytochrome P450 3A4 (Homo sapiens, UniProt P08684); test: Inhibition of CYP3A4 (unknown origin); format: ADME
Chain of Cytochrome P450 3A4 (P08684 whole entry): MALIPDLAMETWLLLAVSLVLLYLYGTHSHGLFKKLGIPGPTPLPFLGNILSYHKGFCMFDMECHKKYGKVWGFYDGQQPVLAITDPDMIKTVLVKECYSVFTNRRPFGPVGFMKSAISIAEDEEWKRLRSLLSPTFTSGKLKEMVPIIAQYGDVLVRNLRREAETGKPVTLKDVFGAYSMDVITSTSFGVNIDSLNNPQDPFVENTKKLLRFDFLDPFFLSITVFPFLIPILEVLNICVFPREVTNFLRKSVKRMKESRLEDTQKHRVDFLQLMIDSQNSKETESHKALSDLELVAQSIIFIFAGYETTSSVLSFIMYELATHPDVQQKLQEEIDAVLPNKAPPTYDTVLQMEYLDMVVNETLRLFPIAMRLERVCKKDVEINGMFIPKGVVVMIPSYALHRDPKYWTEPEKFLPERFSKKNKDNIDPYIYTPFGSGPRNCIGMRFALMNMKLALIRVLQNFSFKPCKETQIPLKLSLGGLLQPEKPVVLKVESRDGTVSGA

[2] = Stability in human microsomes assessed as parent compound remaining at 60 mins; format: ADME, Microsome; settings: read-out: Stabilty
[3] = Stability in dog microsomes assessed as parent compound remaining at 60 mins; format: ADME, Canis lupus familiaris, Microsome; settings: read-out: Stabilty
[4] = Stability in rat microsomes assessed as parent compound remaining at 60 mins; format: ADME, Microsome; settings: read-out: Stabilty
[5] = Stability in mouse microsomes assessed as parent compound remaining at 60 mins; format: ADME, Microsome; settings: read-out: Stabilty
Cytochrome P450 1A2 = target: T1, Cytochrome P450 1A2 (Homo sapiens, UniProt P05177); test: Inhibition of CYP1A2 (unknown origin); format: ADME
T1 sequence (P05177 whole entry): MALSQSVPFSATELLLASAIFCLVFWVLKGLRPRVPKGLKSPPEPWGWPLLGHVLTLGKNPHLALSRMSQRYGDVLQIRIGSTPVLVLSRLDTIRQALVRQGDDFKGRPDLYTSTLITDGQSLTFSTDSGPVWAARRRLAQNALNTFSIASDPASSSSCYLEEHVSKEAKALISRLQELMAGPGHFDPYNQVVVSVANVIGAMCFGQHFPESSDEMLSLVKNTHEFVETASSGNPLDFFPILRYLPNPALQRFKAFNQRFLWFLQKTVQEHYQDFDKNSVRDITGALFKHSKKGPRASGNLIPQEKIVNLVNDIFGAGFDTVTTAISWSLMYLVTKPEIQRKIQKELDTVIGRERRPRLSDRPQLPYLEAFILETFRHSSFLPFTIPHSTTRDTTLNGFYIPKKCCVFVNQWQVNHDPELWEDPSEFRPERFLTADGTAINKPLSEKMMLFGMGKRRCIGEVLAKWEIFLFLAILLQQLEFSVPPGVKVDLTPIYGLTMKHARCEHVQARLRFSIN

Cytochrome P450 2C9 = Cytochrome P450 2C9 (Homo sapiens, UniProt P11712); test: Inhibition of CYP2C9 (unknown origin); format: ADME
Chain of Cytochrome P450 2C9 (P11712 whole entry): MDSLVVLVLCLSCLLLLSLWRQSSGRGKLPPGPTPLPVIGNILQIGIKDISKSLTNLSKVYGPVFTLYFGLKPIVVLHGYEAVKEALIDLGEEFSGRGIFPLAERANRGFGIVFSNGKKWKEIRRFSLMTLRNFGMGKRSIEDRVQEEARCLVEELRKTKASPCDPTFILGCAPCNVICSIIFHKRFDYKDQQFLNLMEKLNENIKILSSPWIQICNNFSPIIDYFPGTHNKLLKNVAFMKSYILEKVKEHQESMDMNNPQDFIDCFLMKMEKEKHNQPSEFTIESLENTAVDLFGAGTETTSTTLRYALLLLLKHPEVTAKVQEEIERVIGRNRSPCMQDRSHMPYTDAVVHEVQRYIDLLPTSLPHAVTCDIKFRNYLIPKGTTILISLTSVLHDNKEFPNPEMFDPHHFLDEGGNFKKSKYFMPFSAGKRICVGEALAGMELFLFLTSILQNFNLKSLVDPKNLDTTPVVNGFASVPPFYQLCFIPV

Cytochrome P450 2C19 = Cytochrome P450 2C19 (Homo sapiens, UniProt P33261); test: Inhibition of CYP2C19 (unknown origin); format: ADME
Chain of Cytochrome P450 2C19 (P33261 whole entry): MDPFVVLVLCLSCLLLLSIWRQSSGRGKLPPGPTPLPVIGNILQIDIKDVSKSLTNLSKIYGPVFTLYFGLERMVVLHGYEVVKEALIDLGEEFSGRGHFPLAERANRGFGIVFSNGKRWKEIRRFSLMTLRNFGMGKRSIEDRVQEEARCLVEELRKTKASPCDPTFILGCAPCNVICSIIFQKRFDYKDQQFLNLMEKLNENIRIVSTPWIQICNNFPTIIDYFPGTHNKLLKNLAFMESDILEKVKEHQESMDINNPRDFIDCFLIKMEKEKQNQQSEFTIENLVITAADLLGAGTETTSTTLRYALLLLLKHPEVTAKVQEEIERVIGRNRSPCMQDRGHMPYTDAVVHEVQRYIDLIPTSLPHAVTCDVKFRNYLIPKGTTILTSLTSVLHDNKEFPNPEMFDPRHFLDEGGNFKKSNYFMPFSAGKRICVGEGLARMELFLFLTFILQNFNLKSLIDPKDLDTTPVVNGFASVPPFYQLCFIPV

Cytochrome P450 2D6 = Cytochrome P450 2D6 (Homo sapiens, UniProt P10635); test: Inhibition of CYP2D6 (unknown origin); format: ADME
Chain of Cytochrome P450 2D6 (P10635 whole entry): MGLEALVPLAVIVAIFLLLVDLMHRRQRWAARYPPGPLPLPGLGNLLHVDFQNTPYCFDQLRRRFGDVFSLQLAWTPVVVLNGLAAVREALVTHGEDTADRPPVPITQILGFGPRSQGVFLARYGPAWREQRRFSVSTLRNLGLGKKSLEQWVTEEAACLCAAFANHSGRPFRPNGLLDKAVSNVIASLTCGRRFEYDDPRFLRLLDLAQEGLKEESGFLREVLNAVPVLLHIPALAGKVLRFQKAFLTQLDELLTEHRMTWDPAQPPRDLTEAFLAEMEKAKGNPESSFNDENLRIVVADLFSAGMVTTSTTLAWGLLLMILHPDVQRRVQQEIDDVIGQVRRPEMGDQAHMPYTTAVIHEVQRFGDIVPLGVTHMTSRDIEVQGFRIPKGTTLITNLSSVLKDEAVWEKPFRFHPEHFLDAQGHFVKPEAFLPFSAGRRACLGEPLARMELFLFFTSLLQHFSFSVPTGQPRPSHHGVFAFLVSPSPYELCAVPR

[6] = Toxicity in mouse xenografted with human MDA-MB-231 cells assessed as inflammation around injection site at 3 mg/kg, iv after 6 days; format: organism-based; settings: in vivo, 144 h, time 6 day
[7] = target: T2, E3 ubiquitin-protein ligase XIAP (Homo sapiens, UniProt P98170); test: Binding affinity to human XIAP-BIR3 (241 to 356 residues)
T2 sequence (P98170 whole entry, the tested form may be a part): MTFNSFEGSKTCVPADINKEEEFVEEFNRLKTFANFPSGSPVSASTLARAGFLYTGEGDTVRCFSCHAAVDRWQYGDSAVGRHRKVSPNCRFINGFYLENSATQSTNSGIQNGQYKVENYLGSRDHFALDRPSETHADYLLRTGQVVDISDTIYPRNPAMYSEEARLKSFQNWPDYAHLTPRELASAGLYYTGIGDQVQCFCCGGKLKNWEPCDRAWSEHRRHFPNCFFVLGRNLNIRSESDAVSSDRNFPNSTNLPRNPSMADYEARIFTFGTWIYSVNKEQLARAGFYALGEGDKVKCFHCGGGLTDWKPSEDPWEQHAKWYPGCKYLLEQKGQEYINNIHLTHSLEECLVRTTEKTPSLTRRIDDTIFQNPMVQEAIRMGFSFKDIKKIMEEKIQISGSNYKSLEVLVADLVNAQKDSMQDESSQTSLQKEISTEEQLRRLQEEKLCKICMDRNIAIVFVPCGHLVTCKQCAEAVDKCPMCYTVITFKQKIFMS

[8] = target: T2, E3 ubiquitin-protein ligase XIAP; test: Antagonist activity at XIAP in human MDA-MB-231 cells assessed as fold change in Caspase-9 activation at 1 nM; format: cell-based; settings: filed as antagonist
[9] = target: T2, E3 ubiquitin-protein ligase XIAP; test: Antagonist activity at XIAP in human MDA-MB-231 cells assessed as fold change in Caspase-3 activation at 1 nM; format: cell-based; settings: filed as antagonist
MDA-MB-468 = test: Cytotoxicity against human MDA-MB-468 cells; format: functional, cell-based
MCF7 = test: Cytotoxicity against human MCF7 cells; format: functional, cell-based
OVCAR-3 = test: Cytotoxicity against human OVCAR-3 cells; format: functional, cell-based
BXPC-3 = test: Cytotoxicity against human BxPC3 cells; format: functional, cell-based
PANC-1 = test: Cytotoxicity against human PANC-1 cells; format: functional, cell-based
MIA PaCa-2 = test: Cytotoxicity against human MIA PaCa-2 cells; format: functional, cell-based
J82 = test: Cytotoxicity against human J82 cells; format: functional, cell-based
HS27 = test: Cytotoxicity against human HS27 cells; format: cell-based
[10] = Toxicity in mouse xenografted with human MDA-MB-231 cells assessed as reduction in weight at 3 mg/kg, iv administered for 14 days and measured after 30 days; format: organism-based; settings: in vivo, 336 h, time 14 day
MDA-MB-231 [11] = test: Antitumour activity against in human MDA-MB-231 cells xenografted in mouse assessed as reduction in tumour burdens at 3 mg/kg, iv administered for 14 days and measured after 30 days; format: functional, organism-based; settings: time 14.0 day
MDA-MB-231 [12] = test: Cytotoxicity against human MDA-MB-231 cells assessed as cell viability at 1 nM (reference value: 98%); format: functional; settings: read-out: Activity
MDA-MB-231 [13] = test: Cytotoxicity against human MDA-MB-231 cells assessed as cell viability at 2 nM (reference value: 98%); format: functional; settings: read-out: Activity
MDA-MB-231 [14] = test: Cytotoxicity against human MDA-MB-231 cells assessed as cell viability at 5 nM (reference value: 98%); format: functional; settings: read-out: Activity
[15] = target: T2, E3 ubiquitin-protein ligase XIAP; test: Induction of degradation of XIAP-BIR3 domain in human MDA-MB-231 cells; format: cell-based; settings: dose 1-5 nM
[16] = target: Baculoviral IAP repeat-containing protein 2 (Homo sapiens) (UniProt Q13490); test: Induction of degradation of cIAP1-BIR3 domain in human MDA-MB-231 cells; format: cell-based; settings: dose 1-5 nM
Chain of Baculoviral IAP repeat-containing protein 2 (Homo sapiens) (Q13490 whole entry, the tested form may be a part): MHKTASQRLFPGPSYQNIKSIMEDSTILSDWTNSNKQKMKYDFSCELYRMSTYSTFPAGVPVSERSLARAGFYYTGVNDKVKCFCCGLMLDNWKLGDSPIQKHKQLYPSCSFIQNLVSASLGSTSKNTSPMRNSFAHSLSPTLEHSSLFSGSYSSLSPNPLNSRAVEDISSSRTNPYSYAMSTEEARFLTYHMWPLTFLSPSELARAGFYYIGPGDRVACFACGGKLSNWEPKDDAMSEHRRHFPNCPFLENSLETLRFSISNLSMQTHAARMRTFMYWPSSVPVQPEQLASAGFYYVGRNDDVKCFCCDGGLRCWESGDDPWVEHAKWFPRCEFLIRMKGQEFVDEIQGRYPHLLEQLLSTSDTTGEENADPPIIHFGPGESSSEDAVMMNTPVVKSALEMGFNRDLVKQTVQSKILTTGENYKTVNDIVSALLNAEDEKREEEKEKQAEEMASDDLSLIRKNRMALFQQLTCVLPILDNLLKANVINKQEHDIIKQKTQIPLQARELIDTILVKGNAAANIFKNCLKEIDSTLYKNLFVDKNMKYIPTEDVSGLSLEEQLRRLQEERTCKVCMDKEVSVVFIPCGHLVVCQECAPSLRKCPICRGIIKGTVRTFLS

[17] = target: Baculoviral IAP repeat-containing protein 3 (Homo sapiens) (UniProt Q13489); test: Induction of degradation of cIAP2-BIR3 domain in human MDA-MB-231 cells; format: cell-based; settings: dose 1-5 nM
Chain of Baculoviral IAP repeat-containing protein 3 (Homo sapiens) (Q13489 whole entry, the tested form may be a part): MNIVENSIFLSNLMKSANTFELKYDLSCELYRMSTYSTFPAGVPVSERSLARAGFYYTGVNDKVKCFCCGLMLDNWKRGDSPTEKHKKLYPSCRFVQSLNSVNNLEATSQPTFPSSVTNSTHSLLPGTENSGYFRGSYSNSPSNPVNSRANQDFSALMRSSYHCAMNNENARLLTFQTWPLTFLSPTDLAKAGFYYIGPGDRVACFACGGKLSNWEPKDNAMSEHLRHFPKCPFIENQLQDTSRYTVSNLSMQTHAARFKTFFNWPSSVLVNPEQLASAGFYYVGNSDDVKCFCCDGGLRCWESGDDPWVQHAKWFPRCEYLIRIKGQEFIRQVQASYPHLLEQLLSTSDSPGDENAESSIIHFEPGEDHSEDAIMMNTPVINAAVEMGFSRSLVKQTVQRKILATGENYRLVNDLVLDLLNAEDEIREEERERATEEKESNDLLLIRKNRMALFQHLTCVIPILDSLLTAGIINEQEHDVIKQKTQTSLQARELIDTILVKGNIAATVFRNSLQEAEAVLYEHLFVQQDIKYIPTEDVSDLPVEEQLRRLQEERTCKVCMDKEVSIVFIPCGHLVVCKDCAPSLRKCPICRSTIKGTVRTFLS

CN[C@@H](C)C(=O)N[C@H](C(=O)N1CCC[C@H]1C(=O)Nc1cc2c(N[C@H]3CC[C@@H](Nc4ncnc5cc(OC)c(NC(=O)[C@@H]6CCCN6C(=O)[C@@H](NC(=O)[C@H](C)NC)C(C)(C)C)cc45)CC3)ncnc2cc1OC)C(C)(C)C
IC50 (MDA-MB-231 [1]): 5.93 nM
IC50 (Cytochrome P450 3A4): 5530 nM

CN[C@@H](C)C(=O)N[C@H](C(=O)N1CCC[C@H]1C(=O)Nc1cc2c(NCC#CC#CCNc3ncnc4cc(OC)c(NC(=O)[C@@H]5CCCN5C(=O)[C@@H](NC(=O)[C@H](C)NC)C(C)(C)C)cc34)ncnc2cc1OC)C(C)(C)C
IC50 (MDA-MB-231 [1]): 0.3 nM
remaining at 1 h [2]: 64%
remaining at 1 h [3]: 65%
remaining at 1 h [4]: 87%
remaining at 1 h [5]: 62%

CN[C@@H](C)C(=O)N[C@H](C(=O)N1CCC[C@H]1C(=O)Nc1cc2c(OCC#CC#CCOc3ncnc4cc(OC)c(NC(=O)[C@@H]5CCCN5C(=O)[C@@H](NC(=O)[C@H](C)NC)C(C)(C)C)cc34)ncnc2cc1OC)C(C)(C)C
IC50 (MDA-MB-231 [1]): 0.2 nM
IC50 (Cytochrome P450 3A4): 240 nM
IC50 (Cytochrome P450 1A2): > 50000 nM
IC50 (Cytochrome P450 2C9): 12600 nM
IC50 (Cytochrome P450 2C19): > 50000 nM
IC50 (Cytochrome P450 2D6): Not Active

CN[C@@H](C)C(=O)N[C@H](C(=O)N1CCC[C@H]1C(=O)Nc1cc2c(NC[C@H]3CC[C@H](CNc4ncnc5cc(OC)c(NC(=O)[C@@H]6CCCN6C(=O)[C@@H](NC(=O)[C@H](C)NC)C6CCCCC6)cc45)CC3)ncnc2cc1OC)C1CCCCC1
IC50 (MDA-MB-231 [1]): 1.03 nM
IC50 (Cytochrome P450 3A4): 660 nM

CN[C@@H](C)C(=O)N[C@H](C(=O)N1CCC[C@H]1C(=O)Nc1cc2c(NC[C@H]3CC[C@H](CNc4ncnc5cc(OC)c(NC(=O)[C@@H]6CCCN6C(=O)[C@@H](NC(=O)[C@H](C)NC)C(C)(C)C)cc45)CC3)ncnc2cc1OC)C(C)(C)C
IC50 (MDA-MB-231 [1]): 0.31 nM
IC50 (Cytochrome P450 3A4): 460 nM

CN[C@@H](C)C(=O)N[C@H](C(=O)N1CCC[C@H]1C(=O)N(CCc1ccccc1)C(=O)C(F)(F)F)[C@H](C)OCC#CC#CCO[C@H](C)[C@H](NC(=O)[C@H](C)NC)C(=O)N1CCC[C@H]1C(=O)N(CCc1ccccc1)C(=O)C(F)(F)F
Activity [6]: Toxic

CN[C@@H](C)C(=O)N[C@H](C(=O)N1CCC[C@H]1C(=O)Nc1cc2c(NCc3ccc(CNc4ncnc5cc(OC)c(NC(=O)[C@@H]6CCCN6C(=O)[C@@H](NC(=O)[C@H](C)NC)C(C)(C)C)cc45)cc3)ncnc2cc1OC)C(C)(C)C
IC50 (MDA-MB-231 [1]): 4.3 nM

CN[C@@H](C)C(=O)N[C@H](C(=O)N1CCC[C@H]1C(=O)Nc1cc2c(NCCOCCOCCNc3ncnc4cc(OC)c(NC(=O)[C@@H]5CCCN5C(=O)[C@@H](NC(=O)[C@H](C)NC)C(C)(C)C)cc34)ncnc2cc1OC)C(C)(C)C
IC50 (MDA-MB-231 [1]): 5.04 nM
IC50 (Cytochrome P450 3A4): 5650 nM

CN[C@@H](C)C(=O)N[C@H](C(=O)N1CCC[C@H]1C(=O)Nc1cc2c(N[C@H]3CC[C@H](Nc4ncnc5cc(OC)c(NC(=O)[C@@H]6CCCN6C(=O)[C@@H](NC(=O)[C@H](C)NC)C(C)(C)C)cc45)CC3)ncnc2cc1OC)C(C)(C)C
IC50 (MDA-MB-231 [1]): 0.14 nM
IC50 (Cytochrome P450 3A4): 3560 nM
IC50 (Cytochrome P450 1A2): > 50000 nM
IC50 (Cytochrome P450 2C9): 43600 nM
IC50 (Cytochrome P450 2C19): 35700 nM
IC50 (Cytochrome P450 2D6; read-out: IC50): > 50000 nM
remaining at 1 h [2]: 86%
remaining at 1 h [3]: 63%
remaining at 1 h [4]: 100%
remaining at 1 h [5]: 94%
Ki [7]: 64 nM
fold change (FC) [8]: 10.7
fold change (FC) [9]: 3.4
IC50 (MDA-MB-468): 27.8 nM
IC50 (MCF7): 19.2 nM
IC50 (OVCAR-3): 0.2 nM
IC50 (BXPC-3): 0.2 nM
IC50 (PANC-1): 0.9 nM
IC50 (MIA PaCa-2): 0.1 nM
IC50 (J82): 17.4 nM
IC50 (HS27): > 10000 nM
Activity [10]: Non-Toxic
Activity (MDA-MB-231 [11]): Active
viability at 0.001 µM (MDA-MB-231 [12]): 67%
viability at 0.002 µM (MDA-MB-231 [13]): 42%
viability at 0.005 µM (MDA-MB-231 [14]): 30%
Activity [15]: Dose-dependent effect
Activity [16]: Dose-dependent effect
Activity [17]: Dose-dependent effect

CN[C@@H](C)C(=O)N[C@H](C(=O)N1CCC[C@H]1C(=O)Nc1cc2c(OCC#CCOc3ncnc4cc(OC)c(NC(=O)[C@@H]5CCCN5C(=O)[C@@H](NC(=O)[C@H](C)NC)C(C)(C)C)cc34)ncnc2cc1OC)C(C)(C)C
IC50 (MDA-MB-231 [1]): 0.4 nM
IC50 (Cytochrome P450 3A4): 860 nM

CN[C@@H](C)C(=O)N[C@H](C(=O)N1CCC[C@H]1C(=O)Nc1cc2c(NC[C@H]3CC[C@@H](CNc4ncnc5cc(OC)c(NC(=O)[C@@H]6CCCN6C(=O)[C@@H](NC(=O)[C@H](C)NC)C(C)(C)C)cc45)CC3)ncnc2cc1OC)C(C)(C)C
IC50 (MDA-MB-231 [1]): 0.41 nM
IC50 (Cytochrome P450 3A4): < 620 nM

CN[C@@H](C)C(=O)N[C@H](C(=O)N1CCC[C@H]1C(=O)Nc1cc2c(NCCCCCCCCNc3ncnc4cc(OC)c(NC(=O)[C@@H]5CCCN5C(=O)[C@@H](NC(=O)[C@H](C)NC)C(C)(C)C)cc34)ncnc2cc1OC)C(C)(C)C
IC50 (MDA-MB-231 [1]): 0.3 nM
IC50 (Cytochrome P450 3A4): 430 nM

CN[C@@H](C)C(=O)N[C@H](C(=O)N1CCC[C@H]1C(=O)Nc1cc2c(N3CCN(c4ncnc5cc(OC)c(NC(=O)[C@@H]6CCCN6C(=O)[C@@H](NC(=O)[C@H](C)NC)C(C)(C)C)cc45)CC3)ncnc2cc1OC)C(C)(C)C
IC50 (MDA-MB-231 [1]): 2.3 nM

CN[C@@H](C)C(=O)N[C@H](C(=O)N1CCC[C@H]1C(=O)Nc1cc2c(Nc3ccc(OCC#CC#CCOc4ccc(Nc5ncnc6cc(OC)c(NC(=O)[C@@H]7CCCN7C(=O)[C@@H](NC(=O)[C@H](C)NC)C(C)(C)C)cc56)cn4)nc3)ncnc2cc1OC)C(C)(C)C
IC50 (MDA-MB-231 [1]): 34.6 nM
